Legend:
[1] = CO concentration achievable in aqueous composition (water) at given temperature and pressure; type: physicochemical
Source text: There are a number of significant limitations to using the delivery of CO dissolved in liquid and used through the GI tract or IV for therapeutic or prophylactic purposes. These limitations have been overcome in the present invention. The primary barrier to date has been delivering sufficient quantities of CO. The solubility of CO in aqueous solutions is low at room temperature and normal atmospheric pressure (ATM). Thus, using approaches previously proposed in the art, which rely on dissolving CO into an aqueous composition at room temperature and at atmospheric pressure, the volume of liquid necessary to deliver a therapeutic dose of CO is logistically prohibitive. However, using the present invention, therapeutically useful levels of CO can be achieved. Table 1 provides a summary of volumes necessary to achieve a therapeutic dose providing an average increase of […] CO-Hb, which provides an average CO-Hb level in the blood of about 7% on average without rising above 15% at any given time. The values are presented for SCD patients. Table 2 provides a similar summary of volumes necessary to treat patients having normal levels of Hb and normal lung function.
First, in the present invention, in particular as it relates to embodiments wherein aqueous compositions are involved, CO is dissolved in an aqueous liquid under higher than ambient pressure. The use of pressure to dissolve the CO increases the achievable concentration of CO in solution. […] Although raising the pressure above 10 ATM might not be commercially practicable, it is technologically feasible at this time. […]

[2] = cited from earlier work
[3] = cited from earlier work; remark: listed apart in the source

## [C-]#[O+] [CO, carbon monoxide]
[1]; 2° C., 1 ATM
  CO Concentration Achievable in Aqueous Composition: 40 mg/L water
  CO Concentration in Aqueous Solution: 40 mg/L water
[1]; 2° C., 2 ATM
  CO Concentration Achievable in Aqueous Composition: 80 mg/L water
  CO Concentration in Aqueous Solution: 80 mg/L water
[1]; 2° C., 3 ATM
  CO Concentration Achievable in Aqueous Composition: 120 mg/L water
  CO Concentration in Aqueous Solution: 120 mg/L water
[1]; 2° C., 5 ATM
  CO Concentration Achievable in Aqueous Composition: 200 mg/L water
  CO Concentration in Aqueous Solution: 200 mg/L water
[1]; 2° C., 10 ATM
  CO Concentration Achievable in Aqueous Composition: 400 mg/L water
  CO Concentration in Aqueous Solution: 400 mg/L water
[1]; 21° C., 1 ATM
  CO Concentration Achievable in Aqueous Composition: 25 mg/L water
[2]
  half-life of the alpha-phase of CO in the human bloodstream: 4 to 6 h
[3]; generally recognized
  CO-Hb level at which toxicity and side effects are routinely seen: over 20%
  CO-Hb level showing effectiveness at reducing SCC without significant deleterious side effects or toxicity: up to 15 % CO-Hb
[3]; reported (Stewart 1975)
  Hb saturation likely resulting in CO-induced death unless treatment is provided: over 67%
[3]; reported, can result in death if maintained long-term
  Hb saturation resulting in loss of consciousness, among other serious morbidities: over 30%
